In patent US8754226B2, “Piperidinyl-substituted lactams as GPR119 modulators” (Array BioPharma Inc., priority 2010, dated 2014):

System: modified version of the GPR119 receptor (94% identity to human receptor)
Experiment: cAMP production assay (LANCE cAMP kit, TR-FRET) in HEK-293 cells
Type: cell-based
Conditions: for cAMP production in HEK-293 cells: HEK-293 cells stably expressing modified GPR119, test compounds 0.2 nM to 10 μM, one-hour incubation at ambient temperature; for Fold over baseline: increase in cAMP relative to basal levels, agonist activity if 1.5-fold or greater
How it was run: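 Doxycycline-induced (1 μg/mL, overnight) HEK-293 cells expressing modified GPR119 were thawed, 2000 cells/well, and exposed to compounds (0.2 nM-10 μM final, 0.5% DMSO) for 1 h at ambient temperature in HBSS/HEPES/BSA. cAMP was measured by LANCE TR-FRET against a standard curve. Agonism was defined as ≥1.5-fold over basal.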

Row | Structure (SMILES) | cAMP production in HEK-293 cells [nmol] | Fold over baseline
1 | CCc1cnc(N2CCC(N3CC[C@H](Nc4ccc(S(C)(=O)=O)cc4F)C3=O)CC2)nc1 [Example 19, (S)-1-(1-(5-ethylpyrimidin-2-yl)piperidin-4-yl)-3-(2-fluoro-4 (methylsulfonyl)phenylamino) pyrrolidin-2-one] | 9.9 | 2.1
2 | CS(=O)(=O)c1cc(F)c(N[C@H]2CCCCN(C3CCN(c4nccnc4C#N)CC3)C2=O)cc1F.Cl [Example 85, (S)-3-(4-(3-(2,5-difluoro-4-(methylsulfonyl)phenylamino)-2-oxoazepan-1-yl)piperidin-1-yl)pyrazine-2-carbonitrile hydrochloride] | 6.5 | 1.9
3 | CS(=O)(=O)c1ccc(N[C@H]2CCN(C3CCN(c4ncc(Cl)cc4C#N)CC3)C2=O)c(F)c1 [Example 116, (S)-5-chloro-2-(4-(3-(2-fluoro-4-(methylsulfonyl)phenyl-amino)-2-oxopyrrolidin-1-yl)piperidin-1-yl)nicotinonitrile] | 10.2 | 2.1
4 | CS(=O)(=O)c1ccc(NC2CCN(C3CCN(c4ccc(-c5ccccc5)cn4)CC3)C2=O)c(F)c1 (stereo not drawn) [Example 25, 3-(2-fluoro-4-(methylsulfonyl)phenylamino)-1-(1-(5-phenylpyridin-2-yl)piperidin-4-yl)pyrrolidin-2-one] | 11.6 | 2.9
5 | Cc1nnc(-c2ccc(O[C@H]3CCN(C4CCN(c5cnc(Cl)cn5)CC4)C3=O)c(F)c2)o1 [Example 71, (S)-1-(1-(5-chloropyrazin-2-yl)piperidin-4-yl)-3-(2-fluoro-4-(5-methyl-1,3,4-oxadiazol-2-yl)phenoxy)pyrrolidin-2-one] | 17.6 | 5.6
6 | CS(=O)(=O)c1ccc(O[C@H]2CCN(C3CCN(c4ncc(Cl)cc4F)CC3)C2=O)cn1 [Example 144, (S)-1-(1-(5-chloro-3-fluoropyridin-2-yl)piperidin-4-yl)-3-(6-(methylsulfonyl)pyridin-3-yloxy)pyrrolidin-2-one] | 19.6 | 2.9
7 | CCc1cnc(N2CCC(N3CCC(Nc4ccc(S(C)(=O)=O)cc4F)C3=O)CC2)c(C)c1 (stereo not drawn) [Example 28, 1-(1-(5-ethyl-3-methylpyridin-2-yl)piperidin-4-yl)-3-(2-fluoro-4-(methylsulfonyl)phenylamino)pyrrolidin-2-one] | 39.4 | 4.0
8 | CS(=O)(=O)c1ccc(N[C@H]2CCN(C3CCN(c4ncc(-c5cn[nH]c5)cn4)CC3)C2=O)c(F)c1 [Example 31, (S)-1-(1-(5-(1H-pyrazol-4-yl)pyrimidin-2-yl)piperidin-4-yl)-3-(2-fluoro-4-(methylsulfonyl)phenylamino)pyrrolidin-2-one] | 14.5 | 2.9
9 | CCc1cnc(N2CCC(N3CCCC[C@H](Nc4ccc(S(C)(=O)=O)cc4F)C3=O)CC2)nc1.Cl [Example 79] | 18.0 | 3.8
10 | CCc1cnc(N2CCC(N3CCC[C@H](Nc4ncc(C(F)(F)F)cc4Cl)C3=O)CC2)nc1 [Example 76, (S)-3-(3-chloro-5-(trifluoromethyl)pyridin-2-ylamino)-1′-(5-ethylpyrimidin-2-yl)-[1,4′-bipiperidin]-2-one] | 5.9 | 1.9
11 | CCc1cnc(N2CCC(N3CCC[C@H](Nc4cc(C)c(S(C)(=O)=O)cc4F)C3=O)CC2)nc1 [Example 58, (S)-1′-(5-ethylpyrimidin-2-yl)-3-(2-fluoro-5-methyl-4-(methylsulfonyl)phenylamino)-[1,4′-bipiperidin]-2-one] | 13.2 | 2.4
12 | CS(=O)(=O)c1cc(F)c(N[C@H]2CCN(C3CCN(c4ncc(C(F)(F)F)cc4F)CC3)C2=O)c(F)c1 [Example 117, (S)-3-(2,6-difluoro-4-(methylsulfonyl)phenyl-amino)-1-(1-(3-fluoro-5-(trifluoromethyl)pyridin-2-yl)piperidin-4-yl)pyrrolidin-2-one] | 31.1 | 4.0
13 | CN(C)C(=O)c1cnc(N2CCC(N3CC[C@H](Nc4ccc(S(C)(=O)=O)cc4F)C3=O)CC2)c(Cl)c1 [Example 157, (S)-5-chloro-6-(4-(3-(2-fluoro-4-(methylsulfonyl)phenylamino)-2-oxopyrrolidin-1-yl)piperidin-1-yl)-N,N-dimethylnicotinamide] | 8.3 | 3.1
14 | CS(=O)(=O)c1cc(F)c(N[C@H]2CCN(C3CCN(c4ncc(Cl)cc4Cl)CC3)C2=O)c(F)c1 [Example 110, (S)-1-(1-(3,5-dichloropyridin-2-yl)piperidin-4-yl)-3-(2,6-difluoro-4-(methylsulfonyl)phenyl-amino)pyrrolidin-2-one] | 29.3 | 2.3
15 | CS(=O)(=O)c1ccc(N[C@H]2CCN(C3CCN(c4nccnc4C#N)CC3)C2=O)c(F)c1 [Example 132, (S)-3-(4-(3-(2-fluoro-4-(methylsulfonyl)phenyl-amino)-2-oxopyrrolidin-1-yl)piperidin-1-yl)pyrazine-2-carbonitrile] | 9.1 | 1.5
16 | CS(=O)(=O)c1cc(F)c(N[C@H]2CCN(C3CCN(c4cnc(C#N)cn4)CC3)C2=O)cc1F [Example 16, (S)-5-(4-(3-(2,5-difluoro-4-(methylsulfonyl)phenylamino)-2-oxopyrrolidin-1-yl)piperidin-1-yl)pyrazine-2-carbonitrile] | 21.4 | 4.0
17 | CCc1cnc(N2CCC(N3CCCC(Oc4cc(F)c(S(C)(=O)=O)cc4F)C3=O)CC2)nc1 (stereo not drawn) [Example 26, 3-(2,5-difluoro-4-(methylsulfonyl)phenoxy)-1′-(5-ethylpyrimidin-2-yl)-1,4′-bipiperidin-2-one] | 19.1 | 4.2
18 | CCc1cnc(N2CCC(N3CC[C@H](Oc4cc(C)c(C#N)cc4F)C3=O)CC2)nc1 [Example 98, (S)-4-(1-(1-(5-ethylpyrimidin-2-yl)piperidin-4-yl)-2-oxopyrrolidin-3-yloxy)-5-fluoro-2-methylbenzonitrile] | 31.2 | 3.5
19 | Cc1ccccc1-c1cnc(N2CCC(N3CC[C@H](Oc4cc(F)c(S(C)(=O)=O)cc4F)C3=O)CC2)nc1 [Example 93, (S)-3-(2,5-difluoro-4-(methylsulfonyl)phenoxy)-1-(1-(5-o-tolylpyrimidin-2-yl)piperidin-4-yl)pyrrolidin-2-one] | 11.1 | 2.2
20 | CCc1cnc(N2CCC(N3CC[C@H](Nc4cc(F)c(S(C)(=O)=O)cc4F)C3=O)CC2)nc1 [Example 5, (S)-3-(2,5-difluoro-4-(methyl-sulfonyl)phenylamino)-1-(1-(5-ethylpyrimidin-2-yl)piperidin-4-yl)pyrrolidin-2-one] | 12.3 | 2.2
21 | CCc1cnc(N2CCC(N3CCCC(Nc4ccc(S(C)(=O)=O)c(F)c4)C3=O)CC2)nc1 (stereo not drawn) [Example 63, 1′-(5-ethylpyrimidin-2-yl)-3-(3-fluoro-4-(methylsulfonyl)phenylamino)-[1,4′-bipiperidin]-2-one] | 16.2 | 3.4
